The test has as its system M. tuberculosis H37Rv growth inhibition. Put plainly: M. tuberculosis H37Rv growth inhibitors, H37Rv strain (AID 1626). To be noted: for IC90: measured here: IC90 against H37Rv; for CC50: measured here: Vero cell cytotoxicity.

Bounds are passed on as bounds.

By IC50 is commonly meant the concentration that gives 50% inhibition. Usually IC90 stands for the point of the concentration-response curve where the effect stands at 90%. Usually CC50 stands for the concentration at which the toxic effect on the cells reaches its halfway point. Low readings indicate greater toxicity to the cells, high ones lower toxicity to the cells. As for `COc1ccc(NC(=O)CSC2=C(C#N)C(c3ccco3)C(C(=O)Nc3nc4ccccc4s3)=C(C)N2)cc1` (centres undefined), the IC50 is 14 µM, the IC90 is more than 100 µM and the CC50 is more than 40 µM.
For the compound `O=C(Nc1ccc(C2=NCCN2)cc1)c1ccc(Cl)c(C(=O)Nc2ccc(C3=NCCN3)cc2)c1`, the IC50 was 7.69 µM and the IC90 came to 16.9 µM.
In turn, `CCOC(=O)c1ccc(NC(=O)CCc2c(C)nc3ncnn3c2C)cc1` gave an IC90 of more than 100 µM.
For the compound `O=C(OC(c1ccccc1)c1nccc2ccccc12)c1cc([N+](=O)[O-])cc([N+](=O)[O-])c1` (centres undefined), the IC50 was 2.14 µM, the IC90 was 4.48 µM and the CC50 is more than 40 µM.
As for `CCOc1ccc(N=C/C=C/c2ccccc2)c(O)c1`, the IC50 was 0.939 µM, the concentration for an effect of 90% (IC90) amounted to 5.41 µM and the CC50 turned out to be 38 µM.
For `Cc1nn(-c2ccccc2)c2c1C(c1ccc(O)c(O)c1)N1C(=N2)C(Nc2ccccc2)=Nc2ccccc21` (centres undefined), in that order: 1.5 µM, 2.11 µM and 8.02 µM.
`CC(=O)OCCCN1c2ccccc2Nc2nnc(-c3ccccc3)cc21` gave an IC90 of more than 100 µM and a CC50 of more than 40 µM.
In the case of `Cc1ccc(Sc2cc(C)nc(-c3ccccn3)n2)cc1`, the IC50 was 2.26 µM, the IC90 stood at 15.7 µM and the half-maximal cytotoxic concentration (CC50) is 10.8 µM.
For `Cc1ccc(-c2cc(C(=O)Nc3nccs3)c3ccccc3n2)c(C)c1`, in that order: 9.6 µM, 11.9 µM and more than 40 µM.
Turning to `O=C(Nc1nccs1)c1cn(-c2ccccc2)nc1-c1ccccc1`, the IC90 is more than 100 µM and the CC50 is more than 40 µM.
In the case of `Cn1c(O)c(C(=Nc2ccccc2)SCc2ccccc2Cl)c(=O)n(C)c1=O`, the IC50 was 2.23 µM, the IC90 stood at 2.76 µM and the CC50 was 22.7 µM.
On the same counts, the results for `COc1ccc(NC(=O)c2nc[nH]c2C(=O)N[C@@H](C)c2ccccc2)cc1` are 5.7 µM, 22.4 µM and more than 40 µM.
Regarding `O=C(COc1ccc(Cl)cc1)Nc1ccc(Cc2ccncc2)cc1`, the IC50 was 5.95 µM and the IC90 is 12.4 µM.
`CCc1nc2sc3ccccc3c(=O)c2c(=O)n1Cc1ccc(OC)cc1`: the IC50 was 6.25 µM, the IC90 stood at 8.28 µM and the CC50 is more than 40 µM.
For the compound `COc1ccc2nc(NC(=O)c3cnccn3)sc2c1`, the CC50 is more than 40 µM.
`Cc1cc(C(=O)CCl)c(C)n1-c1cccc([N+](=O)[O-])c1`: the IC50 was 8.96 µM, the concentration for an effect of 90% (IC90) was 15.7 µM and the CC50 was 20.3 µM.
On the same counts, the results for `CCCCCCn1c(=O)c(C(=O)Nc2nnc(C)s2)c(O)c2ccccc21` are 4.65 µM, 6 µM and more than 40 µM.
Turning to `O=C1C(=O)c2ccc(-c3ccccc3)cc2-c2ccccc21`, the IC50 is 1.47 µM, the IC90 came out at 1.66 µM and the CC50 stood at 3.09 µM.
With `CCOC(=O)c1c(-c2ccccc2)csc1NC(=O)c1cc2ccccc2oc1=O`, the IC50 is less than 0.195 µM, the IC90 was 0.623 µM and the CC50 is more than 40 µM.
Turning to `O=C(c1ccc(Cl)cc1)C1CCCN(Cc2cnn(-c3ccccc3)c2)C1` (centres undefined), the IC50 was 8.69 µM and the IC90 is 11.5 µM.
Regarding `COC(=O)CSc1nc2ccccc2nc1SCC(=O)OC`, the IC50 is 4.87 µM and the IC90 was 12.5 µM.
In the case of `COc1ccc(CNc2nc3nc4c(c(=O)n3[nH]2)CCC4)cc1`, the concentration for half-maximal inhibition (IC50) was 1.09 µM and the IC90 was more than 100 µM.
For the compound `CCOC(=O)c1c(C)n(-c2ccc(C)cc2)c2ccc(OCC(O)CNCCCO)cc12` (centres undefined), the IC50 was 20.3 µM, the IC90 was 37.1 µM and the CC50 was found to be 13 µM.
On to `Cc1nc(N2CCN(Cc3ccc4c(c3)OCO4)CC2)c2cc(-c3ccccc3)sc2n1`, for which the IC50 is 5.39 µM, the IC90 is 6.08 µM and the CC50 is more than 40 µM.
As for `CNc1nc(SC)nc2ccsc12`, the IC50 was 5.66 µM and the IC90 is 15.2 µM.
With `O=C(Nc1nnc(C2CC2)s1)c1ccccn1`, the IC50 is 2.75 µM, the IC90 came out at 3.68 µM and the CC50 is 15.6 µM.
For the compound `CCOc1[nH]n(-c2ccccc2)c(=O)c1C=Nc1ccc(OC)cc1`, the IC90 is more than 100 µM.
Consider `O=C(COC(=O)/C=C/c1cccs1)Nc1ccc2ccccc2c1`, for which the IC50 is 90.8 µM and the IC90 was more than 100 µM.
Consider `Cc1nc([N+](=O)[O-])c(Br)n1Cc1ccc(Cl)c(Cl)c1`, for which the IC50 was 4.08 µM, the IC90 stood at 7.03 µM and the CC50 turned out to be 12.5 µM.
Regarding `CN1CCN(c2nc(-c3ccccc3)nc(-c3ccc(F)cc3)c2C#N)CC1`, the IC50 was 23.9 µM, the IC90 was more than 100 µM and the CC50 is more than 40 µM.
On the same counts, the results for `CCCCCc1cc(=O)oc2c(C(CCN3CCCC(C)C3)c3ccc(N(C)C)cc3)c(OC)cc(OC)c12` (centres undefined) are 5.6 µM, 6.31 µM and 16.5 µM.
Regarding `CCC1CCCCN1C(=O)COC(=O)c1cc(Br)ccc1Cl` (centres undefined), the IC50 was 15.2 µM and the IC90 was more than 100 µM.
On the same counts, the results for `COc1ccc2nc(C)cc(SCC(=O)OC(C)C)c2c1` are 9.36 µM and 13.8 µM.
For `CCCCCC(=O)Nc1ccc(-c2csc(C)n2)cc1`, in that order: 46 µM and more than 100 µM.
For `O=C(OCC(=O)c1c[nH]c2ccccc12)c1ccc([N+](=O)[O-])s1`, in that order: 1.21 µM and 1.93 µM.
On to `O=C(/C=C/c1ccccc1O)c1ccc(Cl)cc1`, for which the IC50 was 14.4 µM, the IC90 turned out to be 24.1 µM and the half-maximal cytotoxic concentration (CC50) turned out to be 27 µM.
Consider `O=C1c2cccc3c(N4CCOCC4)c([N+](=O)[O-])cc(c23)C(=O)N1c1cccc2ccccc12`, for which the IC50 was 5.97 µM, the concentration for an effect of 90% (IC90) came to 6.82 µM and the CC50 was more than 40 µM.
For `Cc1ccc(Nc2cc(C)nc(NCc3ccccc3)n2)cc1`, in that order: 6.69 µM, 9.45 µM and more than 40 µM.
For `CC(=O)Nc1nc2ccccc2n1Cc1ccccc1`, in that order: 2.74 µM, 3.59 µM and more than 40 µM.
Take `CCOC(=O)c1ccc(N/C=C/C(=O)c2ccc(OC)c(OC)c2)cc1`: the concentration for half-maximal inhibition (IC50) is 3.44 µM and the IC90 was more than 100 µM.
Consider `COc1ccc(NC(=O)CCc2nc(-c3ccccc3F)no2)cc1`, for which the IC90 is more than 100 µM.
Still for that read-out and setting: the value for `C=C1C2(C(=O)Nc3ccc(SC(F)F)cc3)CCC(C2)C1(C)C` (centres undefined) was more than 100 µM.
`Cn1ncc2c(Nc3cccc(Cl)c3)nc(Nc3cccc(Cl)c3)nc21`: the IC50 was 11.7 µM, the IC90 is 23.6 µM and the CC50 stood at 26.9 µM.
For `COc1cc(OC)cc(C(=O)Nc2nc3ccccc3[nH]2)c1`, in that order: 15.9 µM, more than 100 µM and more than 40 µM.
For `N=c1n(CCN2CCCCC2)c2ccccc2n1CC(=O)c1ccc(Cl)c(Cl)c1`, in that order: 8.28 µM, 10.5 µM and 19.8 µM.
In the case of `COc1ccc(NCc2n[nH]nc2-c2ccccc2)cc1Cl`, the IC50 was 25.7 µM, the IC90 was more than 100 µM and the CC50 was more than 40 µM.
Regarding `O=C(c1c[nH]c(C(=O)N2CCN(c3ccccc3F)CC2)c1)c1cccc(Cl)c1Cl`, the CC50 was determined as 16.9 µM.
Regarding `O=C1CCNc2ccc(-c3ccccc3)cc21`, the IC90 is more than 100 µM.
For `COC(=O)C(CC(C)C)NC(=O)/C=C/c1ccc(Cl)cc1` (centres undefined), the IC50 was 3.88 µM and the IC90 stood at 6.5 µM.
`Cc1nc(NC(=O)CSc2nnc(-c3ccc4c(c3)OCO4)o2)c(Cl)cc1Cl` gave an IC90 of more than 100 µM.
In the case of `Cc1ccc(-c2noc(CCC(=O)NCCCN3CCN(c4cccc(Cl)c4)CC3)n2)cc1`, the IC50 was 9.9 µM, the IC90 was 13.2 µM and the CC50 is more than 40 µM.
Compound `CCOC(=O)c1ccc(NC(=O)N2CCN(Cc3ccccc3)CC2)cc1` showed an IC90 of more than 100 µM.
Turning to `CCOc1ccc(-c2nnc(NC(=O)c3ccc(OCC(C)C)c(OC)c3)o2)cc1`, the concentration for half-maximal inhibition (IC50) is 10.1 µM, the IC90 is more than 100 µM and the CC50 is 25.3 µM.
As for `CCOC(=O)c1ccc(NC(=O)/C=C/c2cccs2)cc1`, the IC50 was 71.3 µM and the IC90 is more than 100 µM.
With `OC(CNCCc1ccc(C(F)(F)F)cc1)COc1cccc2ccccc12` (centres undefined), the IC50 is 5.71 µM, the IC90 stood at 6.42 µM and the CC50 worked out at 13.7 µM.
On to `N#Cc1cnc2c(-c3ccccc3)c(-c3ccccc3)nn2c1N`, for which the half-maximal inhibitory concentration (IC50) was 28.1 µM, the IC90 was more than 100 µM and the CC50 was more than 40 µM.
For `COc1cccc(-c2csc(N3CCN(C(=O)NC45CC6CC(CC(C6)C4)C5)CC3)n2)c1`, in that order: 1.09 µM, 1.92 µM and more than 40 µM.
Compound `COc1ccccc1/C=C/C(=O)c1ccc(NC(C)=O)cc1` showed a CC50 of 22.8 µM. That is a double-digit micromolar value.
As for `CCOc1ccc(NC2C=CS(=O)(=O)C2)cc1` (centres undefined), the IC90 is more than 100 µM.
Turning to `C#CCOCCOCCOCCNc1nc(N2CCN(C(=O)[C@H](Cc3ccc(O)cc3)n3cc([C@@H](N)C(C)CC)nn3)CC2)nc(N2CCN(C(=O)[C@H](Cc3cc4ccccc4[nH]3)n3cc([C@@H](N)CC(C)C)nn3)CC2)n1` (some centres undefined), the IC50 is 7.36 µM and the IC90 was found to be 21.5 µM.
For the compound `O=C(Nc1ncc(Cc2ccccc2)s1)c1cccs1`, the IC50 was 49 µM, the IC90 was more than 100 µM and the CC50 is more than 40 µM.
For the compound `CCOC(=O)c1c(C)oc2ccc(OC(=O)c3cccs3)cc12`, the half-maximal inhibitory concentration (IC50) is 2.08 µM and the IC90 was 13.6 µM.
For `Cc1ccccc1OCc1nc(-c2ccc(NC(=O)c3cccs3)cc2)no1`, in that order: 4.48 µM and 46.6 µM.
For the compound `O=c1c2ccccc2nc(-c2ccc(Cl)c(Cl)c2)n1O`, the IC50 was 43.8 µM, the IC90 is more than 100 µM and the CC50 is more than 40 µM.
Take `Cc1ccc(C(=O)Nc2nc(-c3ccccn3)cs2)o1`: the IC50 is 2.56 µM, the IC90 came to 6.19 µM and the CC50 was more than 40 µM.

For the origin of these results see PubChem BioAssay AID1626 (SRMLSC, 2009).
